Measured values: US20260061042A1, “POLYNUCLEOTIDE COMPOSITIONS AND USES THEREOF” (Pfizer Inc., priority 2024, published 2026)
Read-outs that look alike come from different tables or passages of the source.

Key:
[1] = molecular target: T1, E. coli CFT073 PapG-II lectin domain PapGLD N96S WT v2 (Escherichia coli, UniProt A0A0H2VDP3, N116S); test: PapG Luminex ligand binding at equilibrium; conditions: HEPES pH 7.4, 4° C. overnight
T1 sequence (A0A0H2VDP3 21-216 N116S): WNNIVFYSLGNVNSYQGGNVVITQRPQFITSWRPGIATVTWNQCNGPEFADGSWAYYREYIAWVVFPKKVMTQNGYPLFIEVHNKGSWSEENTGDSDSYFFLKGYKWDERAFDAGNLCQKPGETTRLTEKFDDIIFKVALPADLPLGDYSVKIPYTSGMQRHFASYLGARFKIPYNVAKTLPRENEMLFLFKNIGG
Method: (§1) To determine the ability of PapGLD mutants to bind the porcine derived globotetraosyl ceramide ligand GalNAc-Gal-Gal-Glc-ceramide (GbO4), a Luminex ligand binding assay was developed. Surfactant Protein-A (SP-A) was coupled to the surface of MagPlex beads by EDC/NHS, to capture the lipid tail of the globotetraosyl ceramide. The Globotetraosyl ceramide/SP-A beads were incubated with an eight-point threefold titration of PapG in a 96 well flat bottom white plate with final volume of 100 microliters of 50 mM HEPES PH 7.4, 10 mM NaCl, 0.0005% Tween 20 shaking at 300 rpm, 4° C. overnight. After 20-24 hours the ligand binding plates were read on a FlexMap 3D plate reader for measurement of well-bead region specific MFI. Ligand binding equilibrium dissociation constants (Kd) were calculated assuming one site specific binding and interpolated using non-linear curve fitting (GraphPad Prism) as the ligand concentration needed to achieve half-maximal binding. The Luminex derived apparent Kd values are based on approximately fifty bead counts per assay sample.
(§2) To determine Luminex ligand binding affinities of PapG mutants for the synthetic globoside ligand Gal-Glc-phenoxy-octyl-amine (GbO2Mpo), a Luminex ligand binding assay was developed based on the direct coupling of the amine reactive globoside ligand to the EDC/NHS activated carboxylic surface of MagPlex beads. Synthesis of GbO2Mpo ligand with an octyl amine linker (for coupling to beads) was performed via methods described previously. The GbO2Mpo beads were incubated with an 8-point, threefold titration of PapG in a 96-well flat bottom white plate with final volume of 100 μl of 50 mM HEPES pH 7.4, 10 mM NaCl, 0.0005% Tween 20 shaking at 300 rpm, 4° C. overnight. After 20-24 hours the ligand binding plates were read on a FlexMap 3D plate reader for measurement of well-bead region specific MFI.
(§3) Binding of PapG proteins to GbO2 or GbO4 ligands was evaluated using a Luminex platform wherein ligands were coupled to MagPlex beads via surfactant protein A (for […]) or directly using […] conjugation (for […]). This assay was used to rank order binding affinities of the mutants, reported as Kd values interpolated from protein antigen titration curves (Table 7).

[2] = molecular target: T2, E. coli CFT073 PapG-II lectin domain PapGLD variant N96S G168A, SEQ ID NO: 17 (Escherichia coli, UniProt A0A0H2VAQ6, G188A/N116S); test: PapG Luminex ligand binding at equilibrium; conditions: HEPES pH 7.4, 4° C. overnight
T2 sequence (A0A0H2VAQ6 with tags, fused parts or gaps N116S/G188A): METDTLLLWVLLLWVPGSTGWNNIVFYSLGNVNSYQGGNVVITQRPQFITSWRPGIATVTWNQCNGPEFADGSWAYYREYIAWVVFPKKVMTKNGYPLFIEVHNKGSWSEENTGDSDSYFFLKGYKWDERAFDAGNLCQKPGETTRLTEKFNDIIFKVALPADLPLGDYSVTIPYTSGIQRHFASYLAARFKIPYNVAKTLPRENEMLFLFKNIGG
Method: as §1, §2, §3

[3] = GbO2Mpo beads, read-out: Kd (GbO2)
[4] = GbO4 beads, read-out: Kd (GbO4)

Substance | Kd [1, 3] [nM] | Kd [2, 3] [nM] | Kd [1, 4] [nM] | Kd [2, 4] [nM]
Gal-Glc-phenoxy-octyl-amine [GbO2] | 1.1 | 2.7 |  | 
GalNAc-Gal-Gal-Glc-ceramide [GbO4] |  |  | 29 | > 100
